Results: US11357817B2, “Immunoproteasome inhibitor” (The Regents of the University of California, priority 2017, dated 2022)

Legend:
P. falciparum Dd2 = P. falciparum Dd2 asexual blood stage SYBR Green I compound sensitivity assay; assay type: cell-based, Plasmodium falciparum; conditions: for Selectivity Index: P. falciparum activity versus HepG2 activity; for IC50: asexual blood stage, 72 hour SYBR green assay
Procedure: P. falciparum Dd2 strain parasites were cultured under standard conditions (31), using RPMI media supplemented with 0.05 mg/ml gentamycin, 0.014 mg/mL hypoxanthine (prepared fresh), 38.4 mM HEPES, 0.2% Sodium Bicarbonate, 3.4 mM Sodium Hydroxide, 0.05% O+ Human Serum (Denatured at […] for 40 min and From Interstate Blood Bank, Memphis, Tenn.) and 0.0025% Albumax). Human O+ whole blood was obtained from TSRI blood bank (La Jolla, Calif.). Leukocyte-free erythrocytes are stored at 50% hematocrit in RPMI-1640 screening media (as above, but without O+ human serum and with 2× albumax concentration) at 4° C. for one to three weeks before experimental use. Cultures were monitored every one to two days via Giemsa-stained thin smears.
Compound susceptibility was measured using the malaria SYBR Green I-based fluorescence assay (32). Asynchronous P. falciparum parasites (Dd2 strain) were cultured in standard conditions before being plated for the assays. Each compound was tested over 72 hours in technical duplicates on a twelve-point concentration curve prepared by three-fold dilution from 6.7 μM to 0.11 nM. At least three independent experiments were carried out for IC50 determination. Artemisinin and chloroquine were used as controls. IC50 values were obtained using normalized fluorescence intensity from SYBR green I and analyzed via non-linear variable slope four-parameter regression curve-fitting model in Prism 6 (GraphPad Software Inc).

HepG2 cells = test: HepG2 cytotoxicity assay; assay type: cell-based; conditions: Homo sapiens
Procedure: The liver-stage and HepG2 toxicity assays were performed as previously reported (35). Briefly, HepG2-A16-CD81EGFP, human hepatocarcinoma HepG2 cells stably transformed to express the tetraspanin CD81 receptor (36, 37) and thus susceptible to P. berghei infection, were cultured at 37° C. in 5% CO2 in DMEM (Life Technologies, Calif.) supplemented with 10% FBS, 0.29 mg/ml glutamine, 100 unit penicillin and 100 μg/ml streptomycin. For both the P. berghei-luciferase and HepG2 cytotoxicity assays, 3×10^3 of the HepG2-A16-CD81EGFP cells in 5 μl of assay medium (DMEM without Phenol Red (Life Technologies, Calif.), 5% FBS, and 5× Pen Strep Glutamine (Life Technologies, Calif.)) at concentration 6×10^5 cells/ml were seeded in 1536-well plates (Greiner BioOne white solid bottom custom GNF mold) 20-26 hours prior to the actual infection. 18 hours prior to infection, 50 nl of compound in DMSO (0.5% final DMSO concentration per well) were transferred with Acoustic Transfer System (ATS) (Biosero) into the assay plates. Atovaquone (12-point serial dilution starting at 10 μM) and Puromycin (12-point serial dilution starting at 10 μM) were used as positive controls for Pb. liver stage assay and HepG2 cytotoxicity respectively. 0.5% DMSO was used as negative control for the both assays.
An. stephensi mosquitoes, infected with P. berghei-luciferase, were provided by the New York University Insectary. P. berghei-luciferase sporozoites were freshly dissected from the infected A. stephensi mosquito salivary glands, filtered twice through a 20 μm nylon net filter using Steriflip Vacuum-Driven Filtration System (Millipore), counted in a hemocytometer, and then adjusted to final concentration 200 sporozoites per μl in the assay media. […] The HepG2-A16-CD81EGFP cell designated for toxicity studies were left uninfected, with 5 ul of additional assay media added to each well to maintain equal concentrations of compounds with P. berghei-luciferase infected plates. After incubation at 37° C. for 48 hours the exoerythrocytic growth and HepG2-A16-CD81EGFP cell viability were quantified by a bioluminescence measurement.
The HepG2 cytotoxicity was assessed by removing the media through an inverted spin of the plates at 150 g for 30 s and addition of 2 μL of CellTiterGlo reagent (Promega diluted 1:2 with deionized water) per well using the MicroFlo liquid handler (BioTek). Immediately after addition of the luminescence reagent, the plates were vortexed for 10 s and read with an EnVision Multilabel reader (PerkinElmer). IC50 values were obtained as above.

[1] = Plasmodium falciparum, DD2, 72 h

CCCCCC(=O)N[C@@H](Cc1ccncc1)C(=O)N[C@@H](CCCC)C(=O)N[C@@H](CC(C)C)C(=O)[C@@]1(C)CO1 [Analog 20]
Selectivity Index (P. falciparum Dd2; listed as 20): 0.01
IC50 (P. falciparum Dd2; listed as 20): 21.8 ± 3.67 nM

CCCCCC(=O)N[C@@H](Cc1c[nH]c2ccccc12)C(=O)N[C@@H](Cc1c[nH]c2ccccc12)C(=O)N[C@@H](Cc1ccccc1)C(=O)[C@@]1(C)CO1 [Analog 17, N—((S)-1-(((S)-3-(1H-indol-3-yl)-1-(((S)-1-((R)-2-methyloxiran-2-yl)-1-oxo-3-phenylpropan-2-yl)amino)-1-oxopropan-2-yl)amino)-3-(1H-indol-3-yl)-1-oxopropan-2-yl)hexanamide]
Selectivity Index (P. falciparum Dd2): 36.89
IC50 (P. falciparum Dd2; [1]): 9.38 ± 0.667 nM
IC50 (HepG2 cells): 346 ± 86.2 nM

CCCCCC(=O)N[C@H](Cc1c[nH]c2ccccc12)C(=O)N[C@@H](CCCC)C(=O)N[C@@H](CC(C)C)C(=O)[C@@]1(C)CO1 [Analog 19, (S)-2-((R)-2-hexanamido-3-(1H-indol-3-yl)propanamido)-N—((S)-4-methyl-1-((R)-2-methyloxiran-2-yl)-1-oxopentan-2-yl)hexanamide]
increase in selectivity (P. falciparum Dd2; D-amino acid at P3 in place of L-Val of analog 1, comparator not stated): 100 fold
Selectivity Index (P. falciparum Dd2): 313.36
IC50 (P. falciparum Dd2; [1]): 2.92 ± 0.403 nM
IC50 (HepG2 cells): 915 ± 289 nM

CCCCCC(=O)N[C@@H](Cc1ccc(N)cc1)C(=O)N[C@@H](CCCC)C(=O)N[C@@H](CC(C)C)C(=O)[C@@]1(C)CO1 [Analog 4, (S)-2-((S)-3-(4-aminophenyl)-2-hexanamidopropanamido)-N—((S)-4-methyl-1-((R)-2-methyloxiran-2-yl)-1-oxopentan-2-yl)hexanamide]
Selectivity Index (P. falciparum Dd2): 1.06
IC50 (P. falciparum Dd2; [1]): 5.99 ± 1.08 nM
IC50 (HepG2 cells): 6.32 ± 4.99 nM

CCCCCC(=O)NC(Cc1ccc(NC(=O)OC(C)(C)C)cc1)C(=O)N[C@@H](Cc1ccc(NC(=O)OC(C)(C)C)cc1)C(=O)N[C@@H](CC(C)C)C(=O)[C@@]1(C)CO1 (stereo in doubt) [Analog 14, tert-butyl (4-((R)-3-(((S)-3-(4-((tert-butoxycarbonyl)amino)phenyl)-1-(((S)-4-methyl-1-((R)-2-methyloxiran-2-yl)-1-oxopentan-2-yl)amino)-1-oxopropan-2-yl)amino)-2-hexanamido-3-oxopropyl)phenyl)carbamate]
Selectivity Index (P. falciparum Dd2): 8.74
IC50 (P. falciparum Dd2; [1]): 13.5 ± 4.69 nM
IC50 (HepG2 cells): 118 ± 21.7 nM

CCCCCC(=O)N[C@@H](Cc1ccccc1)C(=O)N[C@@H](CCCC)C(=O)N[C@@H](CC(C)C)C(=O)[C@@]1(C)CO1 [Analog 2, (S)-2-((S)-2-hexanamido-3-phenylpropanamido)-N—((S)-4-methyl-1-((R)-2-methyloxiran-2-yl)-1-oxopentan-2-yl)hexanamide]
Selectivity Index (P. falciparum Dd2): 5.62
IC50 (P. falciparum Dd2; [1]): 4.04 ± 0.759 nM
IC50 (HepG2 cells): 22.7 ± 8.42 nM

CCCCCC(=O)N[C@@H](Cc1ccccc1)C(=O)N[C@@H](CCCC)C(=O)N[C@@H](Cc1ccccc1)C(=O)[C@@]1(C)CO1 [Analog 7, (S)-2-((S)-2-hexanamido-3-phenylpropanamido)-N—((S)-1-((R)-2-methyloxiran-2-yl)-1-oxo-3-phenylpropan-2-yl)hexanamide]
Selectivity Index (P. falciparum Dd2): 4.60
IC50 (P. falciparum Dd2; [1]): 6.7 ± 0.451 nM
IC50 (HepG2 cells): 30.8 ± 13.7 nM

CCCCCC(=O)N[C@@H](Cc1c[nH]c2ccccc12)C(=O)N[C@@H](CCCC)C(=O)N[C@@H](CC(C)C)C(=O)[C@@]1(C)CO1 [Analog 6, (S)-2-((S)-2-hexanamido-3-(1H-indol-3-yl)propanamido)-N—((S)-4-methyl-1-((R)-2-methyloxiran-2-yl)-1-oxopentan-2-yl)hexanamide]
Selectivity Index (P. falciparum Dd2): 1.05
IC50 (P. falciparum Dd2; [1]): 3.11 ± 0.026 nM
IC50 (HepG2 cells): 3.27 ± 1.29 nM

CCCCCC(=O)N[C@@H](Cc1ccncc1)C(=O)N[C@@H](CCCC)C(=O)N[C@@H](CC(C)C)C(=O)[C@@]1(C)CO1 [Analog 3, (S)-2-((S)-2-hexanamido-3-(pyridin-4-yl)propanamido)-N—((S)-4-methyl-1-((R)-2-methyloxiran-2-yl)-1-oxopentan-2-yl)hexanamide]
Selectivity Index (P. falciparum Dd2; listed as 3): 0.09
IC50 (P. falciparum Dd2; listed as 3): 3.28 ± 0.674 nM
IC50 (HepG2 cells): < 0.283 nM

CCCCCC(=O)N[C@@H](Cc1ccncc1)C(=O)N[C@@H](CCCC)C(=O)N[C@@H](Cc1ccccc1)C(=O)[C@@]1(C)CO1 [Analog 8, (S)-2-((S)-2-hexanamido-3-(pyridin-4-yl)propanamido)-N—((S)-1-((R)-2-methyloxiran-2-yl)-1-oxo-3-phenylpropan-2-yl)hexanamide]
Selectivity Index (P. falciparum Dd2): 0.07
IC50 (P. falciparum Dd2; [1]): 3.87 ± 1.37 nM
IC50 (HepG2 cells): < 0.283 nM

CCCCCC(=O)N[C@@H](Cc1c[nH]c2ccccc12)C(=O)N[C@@H](Cc1c[nH]c2ccccc12)C(=O)N[C@@H](CC(C)C)C(=O)[C@@]1(C)CO1 [Analog 16, N—((S)-1-(((S)-3-(1H-indol-3-yl)-1-(((S)-4-methyl-1-((R)-2-methyloxiran-2-yl)-1-oxopentan-2-yl)amino)-1-oxopropan-2-yl)amino)-3-(1H-indol-3-yl)-1-oxopropan-2-yl)hexanamide]
Selectivity Index (P. falciparum Dd2): 3.16
IC50 (P. falciparum Dd2; [1]): 3.7 ± 0.144 nM
IC50 (HepG2 cells): 11.7 ± 3.32 nM

CCCCCC(=O)NC(Cc1ccc(N)cc1)C(=O)N[C@@H](Cc1ccc(N)cc1)C(=O)N[C@@H](CC(C)C)C(=O)[C@@]1(C)CO1 (stereo in doubt) [Analog 12, N—((R)-3-(4-aminophenyl)-1-(((S)-3-(4-aminophenyl)-1-(((S)-4-methyl-1-((R)-2-methyloxiran-2-yl)-1-oxopentan-2-yl)amino)-1-oxopropan-2-yl)amino)-1-oxopropan-2-yl)hexanamide]
Selectivity Index (P. falciparum Dd2): 0.02
IC50 (P. falciparum Dd2; [1]): 59.6 ± 15.4 nM
IC50 (HepG2 cells): 0.91 ± 0.25 nM

CCCCCC(=O)N[C@@H](Cc1ccc(NC(=O)OC(C)(C)C)cc1)C(=O)N[C@@H](CCCC)C(=O)N[C@@H](Cc1ccccc1)C(=O)[C@@]1(C)CO1 [Analog 10, tert-butyl (4-((S)-2-hexanamido-3-(((S)-1-(((S)-1-((R)-2-methyloxiran-2-yl)-1-oxo-3-phenylpropan-2-yl)amino)-1-oxohexan-2-yl)amino)-3-oxopropyl)phenyl)carbamate]
Selectivity Index (P. falciparum Dd2): 87.71
IC50 (P. falciparum Dd2; [1]): 5.45 ± 2.49 nM
IC50 (HepG2 cells): 478 ± 126 nM

CCCCCC(=O)N[C@@H](Cc1c[nH]c2ccccc12)C(=O)N[C@@H](CCCC)C(=O)N[C@@H](Cc1ccccc1)C(=O)[C@@]1(C)CO1 [Analog 11, (S)-2-((S)-2-hexanamido-3-(1H-indol-3-yl)propanamido)-N—((S)-1-((R)-2-methyloxiran-2-yl)-1-oxo-3-phenylpropan-2-yl)hexanamide]
Selectivity Index (P. falciparum Dd2): 0.66
IC50 (P. falciparum Dd2; [1]): 9.77 ± 1.31 nM
IC50 (HepG2 cells): 6.41 ± 2.26 nM

CCCCCC(=O)N[C@@H](Cc1ccc(N)cc1)C(=O)N[C@@H](CCCC)C(=O)N[C@@H](Cc1ccccc1)C(=O)[C@@]1(C)CO1 [Analog 9, (S)-2-((S)-3-(4-aminophenyl)-2-hexanamidopropanamido)-N—((S)-1-((R)-2-methyloxiran-2-yl)-1-oxo-3-phenylpropan-2-yl)hexanamide]
Selectivity Index (P. falciparum Dd2): 41.69
IC50 (P. falciparum Dd2; [1]): 81.8 ± 14 nM
IC50 (HepG2 cells): 3410 ± 2310 nM

CCCCCC(=O)NC(Cc1ccc(N)cc1)C(=O)N[C@@H](Cc1ccc(N)cc1)C(=O)N[C@@H](Cc1ccccc1)C(=O)[C@@]1(C)CO1 (stereo in doubt) [Analog 13, N—((R)-3-(4-aminophenyl)-1-(((S)-3-(4-aminophenyl)-1-(((S)-1-((R)-2-methyloxiran-2-yl)-1-oxo-3-phenylpropan-2-yl)amino)-1-oxopropan-2-yl)amino)-1-oxopropan-2-yl)hexanamide]
Selectivity Index (P. falciparum Dd2): 13.96
IC50 (P. falciparum Dd2; [1]): 68.2 ± 15.4 nM
IC50 (HepG2 cells): 952 ± 275 nM
